In US20200187502A1, “MICROBIOCIDAL OXADIAZOLE DERIVATIVES” (SYNGENTA PARTICIPATIONS AG, priority 2017, published 2020):

Key:
[1] = tested on: Puccinia recondita f. Sp. Tritici; experiment: Fungicidal activity, wheat leaf disc preventative (brown rust); type: in vivo; conditions: foliar, 200 ppm in the applied formulation, wheat leaf segments cv. Kanzler, compared to untreated control, 7 to 9 days after application, read-out: disease control
Outline: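 Wheat cv. Kanzler leaf segments on agar were sprayed with formulated compound in water, then inoculated with spores 1 day later. Incubated at 19° C, 75% rh, 12 h light/12 h dark; percent disease control versus untreated scored 7 to 9 days after application.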

Phakopsora pachyrhizi = experiment: Fungicidal activity, soybean leaf disc preventative (Asian soybean rust); type: in vivo; conditions: foliar, 200 ppm in the applied formulation, soybean leaf disks, compared to untreated control, 12 to 14 days after application, read-out: disease control
Outline: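 Read-out is percent disease control relative to untreated check discs, assessed once untreated discs show adequate disease, 12 to 14 days after application. Compounds, tested at 200 ppm in the applied formulation, are sprayed onto soybean leaf discs one day before inoculation with a spore suspension.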

[2] = tested on: Puccinia recondita f. Sp. Tritici; experiment: Fungicidal activity, wheat leaf disc curative (brown rust); type: in vivo; conditions: foliar, 200 ppm in the applied formulation, wheat leaf segments cv. Kanzler, curative (applied 1 day after inoculation), compared to untreated control, 6 to 8 days after application, read-out: disease control
Outline: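 Read-out is percent disease control relative to untreated segments, assessed 6 to 8 days after treatment once check disease is adequate. Kanzler wheat leaf segments on agar receive fungal spores, then test compound (DMSO stock diluted in 0.025% Tween20 or water) 1 day later, under 19° C and 75% relative humidity.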

[3] = tested on: Glomerella lacenarium (Colletotrichum lacenarium); experiment: Fungicidal activity, liquid culture, cucumber preventative (anthracnose); type: cell-based; conditions: 20 ppm in the applied formulation, liquid culture in PDB, inhibition of growth measured photometrically 3 to 4 days after application, compared to untreated control, read-out: disease control
Outline: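 Photometric measurement of fungal growth inhibition 3 to 4 days after application gives percent activity relative to untreated check. Conidia were suspended in potato dextrose broth and combined with DMSO compound solutions; incubation at 24° C.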

COCC(=O)N(Cc1ccc(-c2noc(C(F)(F)F)n2)s1)C1CC1 [Compound 4.52, N-cyclopropyl-2-methoxy-N-[[5-[5-(trifluoromethyl)-1,2,4-oxadiazol-3-yl]-2-thienyl]methyl]acetamide]
≥ 80%: pest or weed control at 200 ppm [1] | pest or weed control at 200 ppm (Phakopsora pachyrhizi) | pest or weed control at 200 ppm [2] | inhibition of growth at 20 ppm [3]

CCCC(=O)N(Cc1ccc(-c2noc(C(F)(F)F)n2)s1)C1CC1 [Compound 4.54, N-cyclopropyl-N-[[5-[5-(trifluoromethyl)-1,2,4-oxadiazol-3-yl]-2-thienyl]methyl]butanamide]
≥ 80%: pest or weed control at 200 ppm [1] | pest or weed control at 200 ppm (Phakopsora pachyrhizi) | pest or weed control at 200 ppm [2] | inhibition of growth at 20 ppm [3]

COCCC(=O)N(Cc1ccc(-c2noc(C(F)(F)F)n2)s1)C1CC1 [Compound 4.55, N-cyclopropyl-3-methoxy-N-[[5-[5-(trifluoromethyl)-1,2,4-oxadiazol-3-yl]-2-thienyl]methyl]propanamide]
≥ 80%: pest or weed control at 200 ppm [1] | pest or weed control at 200 ppm (Phakopsora pachyrhizi) | pest or weed control at 200 ppm [2] | inhibition of growth at 20 ppm [3]

CCC(=O)N(Cc1ccc(-c2noc(C(F)(F)F)n2)s1)C1CC1 [Compound 4.56, N-cyclopropyl-N-[[5-[5-(trifluoromethyl)-1,2,4-oxadiazol-3-yl]-2-thienyl]methyl]propanamide]
≥ 80%: pest or weed control at 200 ppm [1] | pest or weed control at 200 ppm (Phakopsora pachyrhizi) | pest or weed control at 200 ppm [2] | inhibition of growth at 20 ppm [3]

COCCCC(=O)N(Cc1ccc(-c2noc(C(F)(F)F)n2)s1)C1CC1 [Compound 4.58, N-cyclopropyl-4-methoxy-N-[[5-[5-(trifluoromethyl)-1,2,4-oxadiazol-3-yl]-2-thienyl]methyl]butanamide]
≥ 80%: pest or weed control at 200 ppm [1] | pest or weed control at 200 ppm (Phakopsora pachyrhizi) | pest or weed control at 200 ppm [2] | inhibition of growth at 20 ppm [3]

COCCC(=O)N(Cc1ccc(-c2noc(C(F)(F)F)n2)s1)OCC(F)F [Compound 4.64, N-(2,2-difluoroethoxy)-3-methoxy-N-[[5-[5-(trifluoromethyl)-1,2,4-oxadiazol-3-yl]-2-thienyl]methyl]propanamide]
≥ 80%: pest or weed control at 200 ppm [1] | pest or weed control at 200 ppm (Phakopsora pachyrhizi) | pest or weed control at 200 ppm [2] | inhibition of growth at 20 ppm [3]

CCN(Cc1ccc(-c2noc(C(F)(F)F)n2)s1)C(=O)N(C)CC#N [Compound 4.70, 1-(cyanomethyl)-3-ethyl-1-methyl-3-[[5-[5-(trifluoromethyl)-1,2,4-oxadiazol-3-yl]-2-thienyl]methyl]urea]
≥ 80%: pest or weed control at 200 ppm [1] | pest or weed control at 200 ppm (Phakopsora pachyrhizi) | pest or weed control at 200 ppm [2] | inhibition of growth at 20 ppm [3]

C=CCN(C)C(=O)N(CC)Cc1ccc(-c2noc(C(F)(F)F)n2)s1 [Compound 4.71, 1-allyl-3-ethyl-1-methyl-3-[[5-[5-(trifluoromethyl)-1,2,4-oxadiazol-3-yl]-2-thienyl]methyl]urea]
≥ 80%: pest or weed control at 200 ppm [1] | pest or weed control at 200 ppm (Phakopsora pachyrhizi) | pest or weed control at 200 ppm [2] | inhibition of growth at 20 ppm [3]

CCN(Cc1ccc(-c2noc(C(F)(F)F)n2)s1)C(=O)NCCOC [Compound 4.72, 1-ethyl-3-(2-methoxyethyl)-1-[[5-[5-(trifluoromethyl)-1,2,4-oxadiazol-3-yl]-2-thienyl]methyl]urea]
≥ 80%: pest or weed control at 200 ppm [1] | pest or weed control at 200 ppm (Phakopsora pachyrhizi) | pest or weed control at 200 ppm [2] | inhibition of growth at 20 ppm [3]

C#CCNC(=O)N(CC)Cc1ccc(-c2noc(C(F)(F)F)n2)s1 [Compound 4.75, 1-ethyl-3-prop-2-ynyl-1-[[5-[5-(trifluoromethyl)-1,2,4-oxadiazol-3-yl]-2-thienyl]methyl]urea]
≥ 80%: pest or weed control at 200 ppm [1] | pest or weed control at 200 ppm (Phakopsora pachyrhizi) | pest or weed control at 200 ppm [2] | inhibition of growth at 20 ppm [3]

CN(CC#N)C(=O)N(C)Cc1ccc(-c2noc(C(F)(F)F)n2)s1 [Compound 4.76, 1-(cyanomethyl)-1,3-dimethyl-3-[[5-[5-(trifluoromethyl)-1,2,4-oxadiazol-3-yl]-2-thienyl]methyl]urea]
≥ 80%: pest or weed control at 200 ppm [1] | pest or weed control at 200 ppm (Phakopsora pachyrhizi) | pest or weed control at 200 ppm [2] | inhibition of growth at 20 ppm [3]

C=CCN(C)C(=O)N(C)Cc1ccc(-c2noc(C(F)(F)F)n2)s1 [Compound 4.77, 1-allyl-1,3-dimethyl-3-[[5-(5-(trifluoromethyl)-1,2,4-oxadiazol-3-yl]-2-thienyl]methyl]urea]
≥ 80%: pest or weed control at 200 ppm [1] | pest or weed control at 200 ppm (Phakopsora pachyrhizi) | pest or weed control at 200 ppm [2] | inhibition of growth at 20 ppm [3]

COCCNC(=O)N(C)Cc1ccc(-c2noc(C(F)(F)F)n2)s1 [Compound 4.78, 3-(2-methoxyethyl)-1-methyl-1-[[5-[5-(trifluoromethyl)-1,2,4-oxadiazol-3-yl]-2-thienyl]methyl]urea]
≥ 80%: pest or weed control at 200 ppm [1] | pest or weed control at 200 ppm (Phakopsora pachyrhizi) | pest or weed control at 200 ppm [2] | inhibition of growth at 20 ppm [3]

CCN(CC)C(=O)N(C)Cc1ccc(-c2noc(C(F)(F)F)n2)s1 [Compound 4.79, 1,1-diethyl-3-methyl-3-[[5-[5-(trifluoromethyl)-1,2,4-oxadiazol-3-yl]-2-thienyl]methyl]urea]
≥ 80%: pest or weed control at 200 ppm [1] | pest or weed control at 200 ppm (Phakopsora pachyrhizi) | pest or weed control at 200 ppm [2] | inhibition of growth at 20 ppm [3]

C#CCNC(=O)N(C)Cc1ccc(-c2noc(C(F)(F)F)n2)s1 [Compound 4.81, 1-methyl-3-prop-2-ynyl-1-[[5-[5-(trifluoromethyl)-1,2,4-oxadiazol-3-yl]-2-thienyl]methyl]urea]
≥ 80%: pest or weed control at 200 ppm [1] | pest or weed control at 200 ppm (Phakopsora pachyrhizi) | pest or weed control at 200 ppm [2] | inhibition of growth at 20 ppm [3]

CCNC(=O)N(Cc1ccc(-c2noc(C(F)(F)F)n2)s1)C(C)C [Compound 4.83, 3-ethyl-1-isopropyl-1-[[5-[5-(trifluoromethyl)-1,2,4-oxadiazol-3-yl]-2-thienyl]methyl]urea]
≥ 80%: pest or weed control at 200 ppm [1] | pest or weed control at 200 ppm (Phakopsora pachyrhizi) | pest or weed control at 200 ppm [2] | inhibition of growth at 20 ppm [3]

C#CCNC(=O)N(Cc1ccc(-c2noc(C(F)(F)F)n2)s1)C(C)C [Compound 4.85, 1-isopropyl-3-prop-2-ynyl-1-[[5-[5-(trifluoromethyl)-1,2,4-oxadiazol-3-yl]-2-thienyl]methyl]urea]
≥ 80%: pest or weed control at 200 ppm [1] | pest or weed control at 200 ppm (Phakopsora pachyrhizi) | pest or weed control at 200 ppm [2] | inhibition of growth at 20 ppm [3]

CCNC(=O)N(Cc1ccc(-c2noc(C(F)(F)F)n2)s1)C1CC1 [Compound 4.87, 1-cyclopropyl-3-ethyl-1-[[5-[5-(trifluoromethyl)-1,2,4-oxadiazol-3-yl]-2-thienyl]methyl]urea]
≥ 80%: pest or weed control at 200 ppm [1] | pest or weed control at 200 ppm (Phakopsora pachyrhizi) | pest or weed control at 200 ppm [2] | inhibition of growth at 20 ppm [3]

C=CCN(C)C(=O)N(Cc1ccc(-c2noc(C(F)(F)F)n2)s1)C1CC1 [Compound 4.88, 1-allyl-3-cyclopropyl-1-methyl-3-[[5-[5-(trifluoromethyl)-1,2,4-oxadiazol-3-yl]-2-thienyl]methyl]urea]
≥ 80%: pest or weed control at 200 ppm [1] | pest or weed control at 200 ppm (Phakopsora pachyrhizi) | pest or weed control at 200 ppm [2] | inhibition of growth at 20 ppm [3]

COCCNC(=O)N(Cc1ccc(-c2noc(C(F)(F)F)n2)s1)C1CC1 [Compound 4.89, 1-cyclopropyl-3-(2-methoxyethyl)-1-[[5-[5-(trifluoromethyl)-1,2,4-oxadiazol-3-yl]-2-thienyl]methyl]urea]
≥ 80%: pest or weed control at 200 ppm [1] | pest or weed control at 200 ppm (Phakopsora pachyrhizi) | pest or weed control at 200 ppm [2] | inhibition of growth at 20 ppm [3]

C#CCNC(=O)N(Cc1ccc(-c2noc(C(F)(F)F)n2)s1)C1CC1 [Compound 4.92, 1-cyclopropyl-3-prop-2-ynyl-1-[[5-[5-(trifluoromethyl)-1,2,4-oxadiazol-3-yl]-2-thienyl]methyl]urea]
≥ 80%: pest or weed control at 200 ppm [1] | pest or weed control at 200 ppm (Phakopsora pachyrhizi) | pest or weed control at 200 ppm [2] | inhibition of growth at 20 ppm [3]

C#CCNC(=O)N(Cc1ccc(-c2noc(C(F)(F)F)n2)s1)OCC(F)F [Compound 4.93, 1-(2,2-difluoroethoxy)-3-prop-2-ynyl-1-[[5-[5-(trifluoromethyl)-1,2,4-oxadiazol-3-yl]-2-thienyl]methyl]urea]
≥ 80%: pest or weed control at 200 ppm [1] | pest or weed control at 200 ppm (Phakopsora pachyrhizi) | pest or weed control at 200 ppm [2] | inhibition of growth at 20 ppm [3]

CN(Cc1ccc(-c2noc(C(F)(F)F)n2)s1)C(=O)C1CC1 [Compound 5.1, N-methyl-N-[[5-[5-(trifluoromethyl)-1,2,4-oxadiazol-3-yl]-2-thienyl]methyl]cyclopropanecarboxamide]
≥ 80%: pest or weed control at 200 ppm [1] | pest or weed control at 200 ppm (Phakopsora pachyrhizi) | pest or weed control at 200 ppm [2] | inhibition of growth at 20 ppm [3]
